Test results from paper PMC8430629, “Anti-Cancer Effects of Cyclic Peptide ALOS4 in a Human Melanoma Mouse Model” (International Journal of Molecular Sciences, 2021).
Where a SMILES comes first, the peptide text is derived from it.

What was measured:
ICR mice [1] = experiment: Repeated IV dose toxicity assessment in cancer-free ICR mice
Description: Acute single or repeated doses of ALOS4 at 10, 30, 90, 180, or 360 mg/kg were administered intravenously to uninoculated (nominally cancer-free) ICR mice. Body weight, rectal temperature, and survival were evaluated for 14 days following injections. Mice were also evaluated for locomotory and anxiety-like behaviors (open-field and EPM) on treatment day 14.

ICR mice [2] = experiment: Open field test; format: in vivo
Description: To evaluate the effect of ALOS4 on mouse locomotor activity, we used the open field (OF) behavioral test. This assay consists of an arena (30 × 40 cm) with no grid markings and uses an infrared imaging system. […] Each mouse was placed individually in the center of the arena and evaluated for 6 min. Arena center dwell time versus arena border dwell time, as well as total traveled distance, were recorded.

ICR mice [3] = experiment: Plasma biochemistry after single IV dose; format: in vivo; settings: 24 h, mean, n = 5; for Total Bilirubin: normal range 0.16–0.32; for Creatinine: normal range 0.2–0.4; for Globulin: normal range 1.4–2.0; for Alb: normal range 3.3–4.0; for TP: normal range 4.7–5.8; for Phosphorus: normal range 6.4–11.3; for Calcium: normal range 9.8–10.8; for Urea: normal range 39–62; for Cholesterol: normal range 56–133; for Glucose: normal range 169–282
Description: (§1) ICR mice were treated with single IV injections of ALOS4 (30, 90, or 180 mg/kg) and blood samples were collected at 24 h post-injection to EDTA and serum tubes. Complete blood cell count (CBC) and blood chemistry analyses were performed for saline and ALOS4 treatment groups at a certified animal laboratory (Herzliya Medical Center, Herzliya, Israel).

ICR mice [4] = experiment: Complete blood count after single IV dose; format: in vivo; settings: for RBC / HGB / MCH / MCHC / Hematocrit / MCV / Platelets / WBC: mean, n = 5; for RBC: normal range 7.31–10.03; for HGB: normal range 13.1–16.2; for MCH: normal range 15–18; for MCHC: normal range 33.7–36.4; for Hematocrit: normal range 36.8–48.7; for MCV: normal range 46.0–50.9; for Platelets: normal range 674–1675; for WBC: blood 24 h post-injection, normal range 6.5–24.5
Description: as §1

[5] = Formulation stability, saline vs saline with 0.1% Tween-80; format: physicochemical; settings: 0.5-5000 pmol/µL, 60 min, room temperature (25 °C), polypropylene tubes, LC-MS, n = 3
Description: (§2) Adhesiveness to inert materials was measured for ALOS4 0.9% NaCl(aq) solution in concentrations of 1, 3 10, 30, or 100 µM and incubated in standard laboratory polypropylene microtubes for 60 min at room temperature. Solutions were transferred to either polypropylene LC vials or borosilicate glass LC vials. Optimal formulation stability of ALOS4 was analyzed in either saline solution (0.9% NaCl) or saline solution containing 0.1% tween 80 (polysorbate; Sigma-Aldrich, Cat#P1754, Darmstadt, Germany) at concentrations of 0.5, 5, 50, 500, or 5000 pmol/µL. Solutions were incubated in standard polypropylene tubes for 60 min at room temperature. Acid/base stability was measured for ALOS4 formulated in saline at a concentration of 10 µM and incubated for 1 or 24 h at 3.4, 4.4, 5.4, 6.4, 7.4, or 9.4 pH at temperatures of 4, 25, or 37 °C. Recovery of ALOS4 following these materials assays was assessed by LC-MS.

[6] = Acid/base and temperature stability; format: physicochemical; settings: 10 µM in saline, pH 3.4, 4.4, 5.4, 6.4, 7.4, 9.4; 4, 25, 37 °C; 1 or 24 h; polypropylene tubes, LC-MS, n = 3
Description: as §2

For `CC(C)C[C@@H]1NC(=O)[C@H](CO)NC(=O)CNC(=O)[C@H](C)NC(=O)[C@H](CO)NC(=O)[C@H](CO)NC(=O)[C@@H](N)CSSC[C@@H](C(=O)O)NC(=O)[C@H](Cc2ccccc2)NC1=O` [ALOS4, H-cycl(Cys-Ser-Ser-Ala-Gly-Ser-Leu-Phe-Cys)-OH] (HELM PEPTIDE1{C.S.S.A.G.S.L.F.C}$PEPTIDE1,PEPTIDE1,1:R3-9:R3$$$V2.0), the weight-gain (ICR mice [1]; IV every other day over 21 days (ten doses), 10, 30, 90, 180, 360 mg/kg, n = 5, vs control) was “no alterations in weight-gain”, the body temperature (ICR mice [1]; IV every other day over 21 days, 10-360 mg/kg, rectal, 30 min after injection, n = 5) was “no alterations” and the “necropsy assessment for organ damage” value (ICR mice [1]; histology of liver, spleen, kidney, lungs, brain, repeated IV 10-360 mg/kg) was “did not reveal any overt signs of tissue damage or inflammation”. For the same molecule, the 21-day survival (ICR mice [1]; maximum tested repeated IV dose 360 mg/kg, n = 5) was 100%, the clinical signs (ICR mice [1]; repeated IV 10-360 mg/kg) was “No adverse overt clinical signs were observed” and the “total traveled distance, open field” value (ICR mice [2]; IV acute single dose 180 mg/kg, n = 5, Bonferroni p = 0.0329) was “only an exception for total traveled distance”. For the same molecule, the “locomotor activity, open field” value (ICR mice [2]; IV acute single dose 30, 90, 180 mg/kg, n = 5, central arena dwell time) was “did not affect locomotor activity in general”, the “Total Bilirubin” value (ICR mice [3]; single IV 30 mg/kg) was 0.11 ± 0.02 mg/dL and the Creatinine (ICR mice [3]; single IV 30 mg/kg) was 0.26 ± 0.014 mg/dL. For the same molecule, the Globulin (ICR mice [3]; single IV 30 mg/kg) was 1.87 ± 0.07 g/dL, the Alb (ICR mice [3]; single IV 30 mg/kg) was 4.3 ± 0.14 g/dL and the TP (ICR mice [3]; single IV 30 mg/kg) was 6.17 ± 0.18 g/dL. The Phosphorus (ICR mice [3]; single IV 30 mg/kg) was 8.6 ± 0.56 mg/dL, the Calcium (ICR mice [3]; single IV 30 mg/kg) was 10.29 ± 0.11 mg/dL and the Urea (ICR mice [3]; single IV 30 mg/kg) was 46.08 ± 1.7 mg/dL. For the same molecule, the Cholesterol (ICR mice [3]; single IV 30 mg/kg) was 108.2 ± 9.5 mg/dL, the Glucose (ICR mice [3]; single IV 30 mg/kg) was 169.8 ± 6.9 mg/dL and the “Total Bilirubin” value (ICR mice [3]; single IV 90 mg/kg) was 0.14 ± 0.02 mg/dL. The Creatinine (ICR mice [3]; single IV 90 mg/kg) was 0.25 ± 0.06 mg/dL, the Globulin (ICR mice [3]; single IV 90 mg/kg) was 2.02 ± 0.07 g/dL and the Alb (ICR mice [3]; single IV 90 mg/kg) was 4.3 ± 0.06 g/dL. The TP (ICR mice [3]; single IV 90 mg/kg) was 6.32 ± 0.13 g/dL, the Phosphorus (ICR mice [3]; single IV 90 mg/kg) was 9.53 ± 0.4 mg/dL and the Calcium (ICR mice [3]; single IV 90 mg/kg) was 10.38 ± 0.29 mg/dL. For the same molecule, the Urea (ICR mice [3]; single IV 90 mg/kg) was 48.23 ± 3.2 mg/dL, the Cholesterol (ICR mice [3]; single IV 90 mg/kg) was 142.25 ± 13.7 mg/dL and the Glucose (ICR mice [3]; single IV 90 mg/kg) was 170.75 ± 10.7 mg/dL. The “Total Bilirubin” value (ICR mice [3]; single IV 180 mg/kg) was 0.11 ± 0.03 mg/dL, the Creatinine (ICR mice [3]; single IV 180 mg/kg) was 0.27 ± 0.02 mg/dL and the Globulin (ICR mice [3]; single IV 180 mg/kg) was 1.59 ± 0.4 g/dL. The Alb (ICR mice [3]; single IV 180 mg/kg) was 4.36 ± 0.024 g/dL, the TP (ICR mice [3]; single IV 180 mg/kg) was 6.28 ± 0.09 g/dL and the Phosphorus (ICR mice [3]; single IV 180 mg/kg) was 8.44 ± 0.75 mg/dL. It also gave a Calcium (ICR mice [3]; single IV 180 mg/kg) of 10.42 ± 0.1 mg/dL, a Urea (ICR mice [3]; single IV 180 mg/kg) of 46.02 ± 3.9 mg/dL and a Cholesterol (ICR mice [3]; single IV 180 mg/kg) of 141.8 ± 9.1 mg/dL. The Glucose (ICR mice [3]; single IV 180 mg/kg) was 183.2 ± 14.3 mg/dL, the “decrease in WBC count” value (ICR mice [4]; ICR mice, single IV 180 mg/kg, 24 h) was 40% and the RBC (ICR mice [4]; single IV 30 mg/kg, 24 h) was 9.16 ± 0.3 10^6/µL. For the same molecule, the HGB (ICR mice [4]; single IV 30 mg/kg, 24 h) was 14.3 ± 0.6 g/dL, the MCH (ICR mice [4]; single IV 30 mg/kg, 24 h) was 15.6 ± 0.2 pg and the MCHC (ICR mice [4]; single IV 30 mg/kg, 24 h) was 32.54 ± 0.23 g/dL. The Hematocrit (ICR mice [4]; single IV 30 mg/kg, 24 h) was 43.96 ± 1.9%, the MCV (ICR mice [4]; single IV 30 mg/kg, 24 h) was 47.96 ± 0.6 fL and the Platelets (ICR mice [4]; single IV 30 mg/kg, 24 h) was 582.4 ± 132 10^3/µL. The WBC (ICR mice [4]; single IV 30 mg/kg) was 4.51 ± 1.3 10^3/µL, the RBC (ICR mice [4]; single IV 90 mg/kg, 24 h) was 9.78 ± 0.3 10^6/µL and the HGB (ICR mice [4]; single IV 90 mg/kg, 24 h) was 15.42 ± 0.5 g/dL. For the same molecule, the MCH (ICR mice [4]; single IV 90 mg/kg, 24 h) was 15.76 ± 0.15 pg, the MCHC (ICR mice [4]; single IV 90 mg/kg, 24 h) was 32.2 ± 0.4 g/dL and the Hematocrit (ICR mice [4]; single IV 90 mg/kg, 24 h) was 47.88 ± 1.1%. The MCV (ICR mice [4]; single IV 90 mg/kg, 24 h) was 48.96 ± 0.24 fL, the Platelets (ICR mice [4]; single IV 90 mg/kg, 24 h) was 770.2 ± 189 10^3/µL and the WBC (ICR mice [4]; single IV 90 mg/kg) was 6.07 ± 1.2 10^3/µL. For the same molecule, the RBC (ICR mice [4]; single IV 180 mg/kg, 24 h) was 8.02 ± 0.6 10^6/µL, the HGB (ICR mice [4]; single IV 180 mg/kg, 24 h) was 13.2 ± 1.04 g/dL and the MCH (ICR mice [4]; single IV 180 mg/kg, 24 h) was 16.42 ± 0.2 pg. For the same molecule, the MCHC (ICR mice [4]; single IV 180 mg/kg, 24 h) was 32.88 ± 0.4 g/dL, the Hematocrit (ICR mice [4]; single IV 180 mg/kg, 24 h) was 40.12 ± 3.15% and the MCV (ICR mice [4]; single IV 180 mg/kg, 24 h) was 49.96 ± 0.32 fL. For the same molecule, the Platelets (ICR mice [4]; single IV 180 mg/kg, 24 h) was 661.8 ± 160.5 10^3/µL, the WBC (ICR mice [4]; single IV 180 mg/kg) was 3.2 ± 0.06 10^3/µL and the “reduction of peptide stability in saline containing 0.1% Tween-80 vs 0.9% NaCl only” value [5] was 1.2 fold. The “stability (recoverability)” value [6] was 90–100%.
